{"source": "patent US8383880B2", "about": "“Infertility control of genetically modified fish” (Academia Sinica, priority 2009, dated 2013)", "key": {"[1]": {"tested_on": "14 dpf transgenic embryos", "assay": "Metronidazole dependent cell ablation, dose response in ablating gonad", "type": "in vivo, zebrafish", "conditions": "5 mM Met, 14 dpf larvae", "experimental": "Metronidazole (Met, M3761, Sigma) was dissolved in a standard zebrafish embryo medium with vigorous agitation. Embryos were incubated at 28° C. in the dark, and 14-21 dpf transgenic embryos were used to study the dose response of Met in ablating gonad. In initial studies, 14 dpf embryos were incubated in a range of Met concentrations (1-10 mM)."}, "[2]": {"tested_on": "Tg(Asp-eGFP:Ntr)", "assay": "Fertility assessment", "type": "in vivo, zebrafish", "experimental": "(§1) Fertility was assessed by pairing each heterozygous transgenic fish with a WT mate. At least 20 transgenic fish were tested for each line, and the numbers of fertile zebrafish were compared with wild-type fish. Each male was assessed with multiple females. Zebrafish were labeled infertile if they were unable to produce offspring over a 4-month period.\n(§2) To assess the fertility of Met-treated transgenic zebrafish lines, Tg(Asp-eGFP:Ntr), Tg(Odf-eGFP:Ntr), and Tg(Sam-eGFP:Ntr) lines were crossed with wild-type zebrafish (100-200 eggs per line; three mating pairs per line). The reproductive parameters were compared with wild-type pairs of the same strain (100-200 eggs per five mating pairs). […] In fact, the infertility of Met-treated Tg(Asp-eGFP:Ntr) transgenic males mated with wild-type female fish increased by over 68.0% compared to that of wild-type. […] However, Met-treated transgenic female lines remained fertile as wild-type female.\n(§3) After establishing breeding colonies of these three transgenic lines, Tg(Asp-eGFP:Ntr), Tg(Odf-eGFP:Ntr), and Tg(Sam-eGFP:Ntr), it became clear that the male transgenic fish were at intermediate levels of infertility while the female transgenic fish remained fertile after Met treatment. None of the Met-treated adult males crossed with wild-type females were fully successful in spawning fertilized eggs (Table 1). […] To reach high or full (100%) levels of male infertility in Met-treated transgenic zebrafish lines, we generated compound transgenic lines, Tg(AO-eGFP:Ntr), Tg(AS-eGFP:Ntr), Tg(OS-eGFP:Ntr), and Tg(AOS-eGFP:Ntr) by crossing each other of Tg(Asp-eGFP:Ntr), Tg(Odf-eGFP:Ntr), and Tg(Sam-eGFP:Ntr), then examined male infertility after Met treatment (Table 2). At 4 months of age, Met-treated compound transgenic males had three mediate (76.4%), intermediate high (85.7%), high (95.0%), and full (100%) levels of infertility for Tg(OS-eGFP:Ntr), Tg(AO-eGFP:Ntr), Tg(AS-eGFP:Ntr), and Tg(AOS-eGFP:Ntr), respectively. Met-treated compound transgenic females crossed with wild-type zebrafish remained fertile. No gross abnormalities were apparent in any of the Met-untreated compound transgenic zebrafish lines or Met-treated double transgenic females."}, "[3]": {"tested_on": "Wild type", "assay": "Fertility assessment", "type": "in vivo, zebrafish", "conditions": "5 mM Met every other day for 1 week; for Female infertility, Met+: Wild type females; for Male infertility, Met+: Wild type males", "experimental": "as §1, §2, §3"}, "[4]": {"tested_on": "Tg(Odf-eGFP:Ntr)", "assay": "Fertility assessment", "type": "in vivo, zebrafish", "experimental": "as §1, §2, §3"}, "[5]": {"tested_on": "Tg(Sam-eGFP:Ntr)", "assay": "Fertility assessment", "type": "in vivo, zebrafish", "experimental": "as §1, §2, §3"}, "[6]": {"tested_on": "AB strain zebrafish embryos", "assay": "Tolerable concentration of Mtz for zebrafish (consecutive immersion of embryos)", "type": "in vivo", "conditions": "for larvae dead: at 5 dpf", "experimental": "In order to determine the tolerable concentration of Mtz for zebrafish, AB strain zebrafish embryos at the single-cell stage were incubated at 28° C. in a range of Mtz concentrations (0-20 mM). We observed obvious abnormal development of larvae at 3 days postfertilization (dpf). The larvae were dead at 5 dpf after consecutive immersions in […] Mtz (100%, n=26/26) and 20 mM Mtz (100%, n=30/30). The nonspecific death of the larvae was first observed at 6 dpf after consecutive immersions in 10 mM Mtz (23%, n=7/30). In contrast, we observed that no larvae died after at least 10 dpf of consecutive immersion in 5 mM Mtz (0%, n=30). Therefore, the optimal Mtz concentration used in the present experiment was 5 mM."}, "[7]": {"tested_on": "Tg(AS-eGFP:Ntr)", "assay": "Fertility assessment, compound transgenic line", "type": "in vivo, zebrafish", "conditions": "Tg(AS-EGFP:Ntr) females, 5 mM Met every other day for 1 week", "excerpt": "(§4) To generate compound transgenic lines, the homozygous transgenic zebrafish of each line, Tg(Asp-eGFP:Ntr), Tg(Odf-eGFP:Ntr), and Tg(Sam-eGFP:Ntr), were then crossed with each other to generate double transgenic fish, Tg(AO-eGFP:Ntr)[Tg(Asp-eGFP:Ntr);Tg(Odf-eGFP:Ntr)], Tg(AS-eGFP:Ntr)[Tg(Asp-eGFP:Ntr);Tg(Sam-eGFP:Ntr)], and Tg(OS-eGFP:Ntr)[Tg(Odf-eGFP:Ntr);Tg(Sam-eGFP:Ntr)] and triple-transgenic fish, Tg(AOS-eGFP:Ntr)[Tg(Asp-eGFP:Ntr; Odf-eGFP:Ntr;Sam-eGFP:Ntr)] for experiments. RT-PCR was performed to test the expression of eGFP:Ntr in the testes of all lines. Animals from each cross were divided into four groups based on genotype. The four groups were then used to assess fertility in response to Met administration.\nas §1, §3"}, "[8]": {"tested_on": "Tg(AOS-eGFP:Ntr)", "assay": "Fertility assessment, compound transgenic line", "type": "in vivo, zebrafish", "excerpt": "as §4, §1, §3"}, "[9]": {"tested_on": "Tg(AO-eGFP:Ntr)", "assay": "Fertility assessment, compound transgenic line", "type": "in vivo, zebrafish", "conditions": "Tg(AO-EGFP:Ntr) females, 5 mM Met every other day for 1 week", "excerpt": "as §4, §1, §3"}, "[10]": {"tested_on": "Tg(OS-eGFP:Ntr)", "assay": "Fertility assessment, compound transgenic line", "type": "in vivo, zebrafish", "conditions": "Tg(OS-EGFP:Ntr) females, 5 mM Met every other day for 1 week", "excerpt": "as §4, §1, §3"}}, "data": [{"smiles": "Cc1ncc([N+](=O)[O-])n1CCO", "note": "[Mtz]", "values": [{"measurement": "deleterious effects on larvae", "setting": "[1]", "result": "no deleterious effects"}, {"measurement": "infertility increased compared to that of wild-type", "setting": "[2]; Met-treated Tg(Asp-eGFP:Ntr) males mated with wild-type female", "result": "over 68.0%"}, {"measurement": "Female infertility, Met+", "setting": "[2]; Tg(Asp-EGFP:Ntr) females, 5 mM Met every other day for 1 week", "result": "0/25 (0%)"}, {"measurement": "Male infertility, Met+", "setting": "[2]; Tg(Asp-EGFP:Ntr) males, 5 mM Met every other day for 1 week", "result": "17/25 (68.0%)"}, {"measurement": "Female infertility, Met+", "setting": "[3]; Table 1 (n=28)", "result": "0/28 (0%)"}, {"measurement": "Female infertility, Met+", "setting": "[3]; Table 2 (n=30)", "result": "0/30 (0%)"}, {"measurement": "Male infertility, Met+", "setting": "[3]; Table 1 (n=28)", "result": "0/28 (0%)"}, {"measurement": "Male infertility, Met+", "setting": "[3]; Table 2 (n=30)", "result": "0/30 (0%)"}, {"measurement": "infertility increased compared to that of wild type", "setting": "[4]; Met-treated Tg(Odf-eGFP:Ntr) males mated with wild-type female", "result": "over 59.1%"}, {"measurement": "Female infertility, Met+", "setting": "[4]; Tg(Odf-EGFP:Ntr) females, 5 mM Met every other day for 1 week", "result": "0/22 (0%)"}, {"measurement": "Male infertility, Met+", "setting": "[4]; Tg(Odf-EGFP:Ntr) males, 5 mM Met every other day for 1 week", "result": "13/22 (59.1%)"}, {"measurement": "infertility increased compared to that of wild type", "setting": "[5]; Met-treated Tg(Sam-eGFP:Ntr) males mated with wild-type female", "result": "> 54.1", "unit": "%"}, {"measurement": "Female infertility, Met+", "setting": "[5]; Tg(Sam-EGFP:Ntr) females, 5 mM Met every other day for 1 week", "result": "0/24 (0%)"}, {"measurement": "Male infertility, Met+", "setting": "[5]; Tg(Sam-EGFP:Ntr) males, 5 mM Met every other day for 1 week", "result": "13/24 (54.1%)"}, {"measurement": "larvae dead", "setting": "[6]; 15 nM Mtz, n=26/26", "result": 100, "unit": "%"}, {"measurement": "larvae died", "setting": "[6]; 5 mM Mtz, at least 10 dpf, n=30", "result": 0, "unit": "%"}, {"measurement": "nonspecific death of the larvae", "setting": "[6]; 10 mM Mtz, first observed at 6 dpf, n=7/30", "result": 23, "unit": "%"}, {"measurement": "larvae dead", "setting": "[6]; 20 mM Mtz, n=30/30", "result": 100, "unit": "%"}, {"measurement": "Female infertility, Met+", "setting": "[7]", "result": "0/40 (0%)"}, {"measurement": "Female infertility, Met+", "setting": "[8]; Tg(AOS-EGFP:Ntr) females, 5 mM Met every other day for 1 week", "result": "0/38 (0%)"}, {"measurement": "lethality in male triple-transgenic fish", "setting": "[8]; male Tg(AOS-eGFP:Ntr), 5 mM Met treatment for 1 week, listed as Met", "result": "occasionally died"}, {"measurement": "Female infertility, Met+", "setting": "[9]", "result": "0/35 (0%)"}, {"measurement": "Female infertility, Met+", "setting": "[10]", "result": "0/34 (0%)"}]}]}
